Assay results reported in article PMC11754895 (Nature Communications, 2025).

Molecular target: T1, OleTKM (Kocuria marina, UniProt A0A0B0D9P4)
T1 sequence (A0A0B0D9P4 1-428): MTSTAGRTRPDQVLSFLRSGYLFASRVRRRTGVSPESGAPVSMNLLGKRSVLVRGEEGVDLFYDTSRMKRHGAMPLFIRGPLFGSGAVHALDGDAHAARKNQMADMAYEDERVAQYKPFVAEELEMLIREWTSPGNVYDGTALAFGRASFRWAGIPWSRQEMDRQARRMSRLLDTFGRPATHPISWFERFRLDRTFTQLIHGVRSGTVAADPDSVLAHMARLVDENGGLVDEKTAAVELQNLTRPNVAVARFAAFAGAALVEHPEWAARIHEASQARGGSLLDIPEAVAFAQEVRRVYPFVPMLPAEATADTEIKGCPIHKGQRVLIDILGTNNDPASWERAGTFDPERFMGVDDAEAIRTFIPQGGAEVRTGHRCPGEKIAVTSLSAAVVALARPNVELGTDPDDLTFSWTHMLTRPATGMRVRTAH
Experiment: inhibition of myristic acid turnover
Assay type: biochemical
Conditions: even mixture of C14:0 and C18:1; competitive

CCCCCCCC/C=C\CCCCCCCC(=O)O [oleic acid] was tested, and the “inhibition of myristic acid turnover” value was “presence of oleic acid impaired the activity of OleTKM against myristic acid (Fig. 1d)”.
